Data set [1] concerns the target T1, CFTR in F508del/MF-HBE cells (Homo sapiens, UniProt P13569, DEL508-508).
T1 construct: human bronchial epithelial (HBE) cells derived from CF subjects heterozygous for F508del and a minimal function CFTR mutation; endogenous in cells; host or cells: primary human bronchial epithelial cells from CF subjects (F508del/MF-HBE)
The experiment in a line: Ussing chamber assay of CFTR-mediated short-circuit currents (potentiator identification). The class given is cell-based. The note with it: with 10 μM Compound VII, 18-24 hours at 37° C., 20% human serum. Here is the method:
Ussing chamber experiments were performed using human bronchial epithelial (HBE) cells derived from CF subjects heterozygous for F508del and a minimal function CFTR mutation (F508del/MF-HBE) and cultured as previously described (Neuberger T., Burton B., Clark H., Van Goor F. Methods Mol Biol 2011:741:39-54). After four days the apical media was removed, and the cells were grown at an air liquid interface for >14 days prior to use.
To isolate the CFTR-mediated short-circuit (ISC) current, F508del/MF-HBE grown on Costar® Snapwell™ cell culture inserts were mounted in an Ussing chamber and the transepithelial ISC was measured under voltage-clamp recording conditions (Vhold=0 mV) at 37° C. The basolateral solution contained (in mM) 145 NaCl, 0.83 K2HPO4, 3.3 KH2PO4, 1.2 MgCl2, 1.2 CaCl2), 10 Glucose, 10 HEPES (pH adjusted to 7.4 with NaOH) and the apical solution contained (in mM) 145 NaGluconate, 1.2 MgCl2, 1.2 CaCl2), 10 glucose, 10 HEPES (pH adjusted to 7.4 with NaOH) and 30 μM amiloride to block the epithelial sodium channel. […] The CFTR-mediated ISC (μA/cm^2) for each condition was determined from the peak forskolin response to the steady-state current following inhibition.
The activity of the CFTR potentiator compounds on the CFTR-mediated ISC was determined in Ussing chamber studies as described above. […]

Data set [2] in a line: First-in-human clinical study of safety, tolerability and PK in healthy subjects. The class given is in vivo. As to conditions: all cohorts (Parts A, B, C), single doses 0.6-540 mg, multiple total daily doses 2-315 mg. Here is the method: In a first-in-human (FIH) clinical study of Compound I, designed to evaluate the safety, tolerability, and pharmacokinetics (PK) of Compound I in healthy subjects, an assessment of drug-drug interactions (DDIs) between Compound I and itraconazole and midazolam was conducted.
This first-in-human (FIH) study of Compound I included three parts (Parts A, B, and C).
Approximately 154 healthy adult subjects were planned to be enrolled in planned cohorts. Approximately 76 subjects were planned to be enrolled in Part A, approximately 48 subjects in Part B, and approximately 30 subjects in Part C. There was no pre-specified ratio of males to females, but reasonable effort was made to enroll females of non-childbearing potential in all dosing cohorts.
Six dose escalation cohorts each were planned for Parts A and B. Additional cohorts in Part A were enrolled based on data from previous cohorts. In each cohort, approximately eight subjects were randomized 3:1 to receive Compound I or placebo as a suspension, under fasted or fed conditions. Eight subjects were enrolled in food-effect Cohort A9 to receive open-label Compound I; subsequent cohorts were dosed under fed conditions. […]
Food effect was evaluated in open-label, single-sequence Cohort A9 to evaluate the effect of food on the PK of Compound I based on emerging PK data during dose escalation. […]

Each structure is given as a SMILES string.

This is an account of results in patent US20250221971A1, “METHODS OF TREATMENT FOR CYSTIC FIBROSIS” (Vertex Pharmaceuticals Incorporated, priority 2022, published 2025).

T1 sequence (P13569 with tags, fused parts or gaps DEL508-508): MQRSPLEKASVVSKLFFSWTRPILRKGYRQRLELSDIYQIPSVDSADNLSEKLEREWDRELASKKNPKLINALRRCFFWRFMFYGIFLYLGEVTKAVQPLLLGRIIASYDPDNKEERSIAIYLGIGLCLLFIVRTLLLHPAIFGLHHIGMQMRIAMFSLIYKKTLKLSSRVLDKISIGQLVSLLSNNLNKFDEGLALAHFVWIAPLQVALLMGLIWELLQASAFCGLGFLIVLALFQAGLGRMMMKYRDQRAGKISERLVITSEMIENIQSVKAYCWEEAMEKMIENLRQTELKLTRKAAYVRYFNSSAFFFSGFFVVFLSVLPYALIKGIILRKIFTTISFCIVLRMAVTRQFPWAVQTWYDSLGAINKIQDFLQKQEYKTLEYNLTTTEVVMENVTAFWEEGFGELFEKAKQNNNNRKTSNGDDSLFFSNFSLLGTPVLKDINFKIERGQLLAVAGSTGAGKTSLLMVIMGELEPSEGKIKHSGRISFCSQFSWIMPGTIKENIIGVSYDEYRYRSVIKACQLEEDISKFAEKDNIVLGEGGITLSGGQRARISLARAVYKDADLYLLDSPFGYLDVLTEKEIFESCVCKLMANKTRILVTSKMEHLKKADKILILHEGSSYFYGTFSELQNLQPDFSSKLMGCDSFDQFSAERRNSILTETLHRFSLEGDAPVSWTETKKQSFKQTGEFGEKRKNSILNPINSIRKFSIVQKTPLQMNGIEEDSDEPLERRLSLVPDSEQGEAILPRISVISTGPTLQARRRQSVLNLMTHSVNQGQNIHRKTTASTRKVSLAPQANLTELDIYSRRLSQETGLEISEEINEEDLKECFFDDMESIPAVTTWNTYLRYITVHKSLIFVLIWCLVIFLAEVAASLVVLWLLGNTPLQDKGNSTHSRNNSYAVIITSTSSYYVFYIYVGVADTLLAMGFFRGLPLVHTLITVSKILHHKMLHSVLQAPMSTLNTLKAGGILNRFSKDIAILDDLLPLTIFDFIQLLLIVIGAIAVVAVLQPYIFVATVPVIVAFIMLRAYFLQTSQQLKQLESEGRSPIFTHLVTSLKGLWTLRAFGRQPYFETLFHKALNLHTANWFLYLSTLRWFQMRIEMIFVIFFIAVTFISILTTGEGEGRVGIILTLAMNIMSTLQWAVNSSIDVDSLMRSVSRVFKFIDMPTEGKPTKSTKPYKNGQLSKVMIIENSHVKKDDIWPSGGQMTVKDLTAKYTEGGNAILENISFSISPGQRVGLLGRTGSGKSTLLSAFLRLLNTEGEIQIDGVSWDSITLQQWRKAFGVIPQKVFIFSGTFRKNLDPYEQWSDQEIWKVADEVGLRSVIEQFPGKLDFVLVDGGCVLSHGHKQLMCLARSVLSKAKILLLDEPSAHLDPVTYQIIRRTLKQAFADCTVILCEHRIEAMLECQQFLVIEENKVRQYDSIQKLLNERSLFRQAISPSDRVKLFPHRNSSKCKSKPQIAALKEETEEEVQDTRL

As to `C[C@@H]1CCCCC[C@](O)(C(F)(F)F)C2=NN=C(O2)c2nc(c(C(F)(F)F)cc2N)O1` [Compound I, (6R,12R)-17-amino-12-methyl-6,15-bis(trifluoromethyl)-13,19-dioxa-3,4,18-triazatricyclo[12.3.1.12,5]nonadeca-1(18),2,4,14,16-pentaen-6-ol], the EC50 in data set [1] was less than 500 nM. In addition, the safety and tolerability result in data set [2] is “generally safe and well-tolerated”.
